In US20110288072A1, “Use of ivabradine for obtaining medicaments intended for the treatment of endothelial dysfunction” (LES LABORATOIRES SERVIER, priority 2007, published 2011):

How the values were obtained:
[1] = test system: dyslipidaemic mice, and rats with heart failure; experiment: Cardiac frequency after 3 months' treatment in the animal models; assay type: in vivo, mouse, rat; conditions: 10 mg/kg per day for 3 months
dyslipidaemic mice = experiment: Endothelial function and compliance of isolated renal and cerebral arteries (myograph) in dyslipidaemic mice; assay type: in vivo, mouse; conditions: 10 mg/kg per day for 3 months
Description: (§1) The impact of treatment with ivabradine on endothelial function was studied in two pathological animal models, dyslipidaemic mice, and rats with heart failure, on 4 different vascular beds, renal and cerebral arteries in the mouse, coronary and mesenteric arteries in the rats. Study of the endothelial function comprises measuring the capacity of the vessel to dilate in response to various stimuli, such as acetylcholine, or measuring the increase in flow in the vessel.
(§2) Some animals were treated with ivabradine, 10 mg/kg per day for 3 months. Dyslipidaemic mice, rats with heart failure, healthy mice (Wild type) and healthy rats, untreated, acted as controls. At the end of the treatment period, the arteries were isolated and mounted in a myograph in order to measure their diameter after the application of acetylcholine or to measure the increase in flow. In order to explore more closely the mechanism associated with endothelial dysfunction, inhibitors of the principal pathways of vasodilation were tested: a free-radical chelating agent, a nitrogen monoxide production inhibitor, a prostacyclin pathway inhibitor.
The compliance (capacity of the vessel to dilate as the transmural pressure increases) of the cerebral arteries of the mice was also evaluated.

[2] = test system: dyslipidaemic mice, and rats with heart failure; experiment: Mechanism of endothelial dysfunction explored with inhibitors of the principal pathways of vasodilation; assay type: in vivo, mouse, rat; conditions: mechanism of the beneficial effects; 10 mg/kg per day for 3 months
Description: as §2

rats with heart failure = experiment: Endothelial function of isolated coronary and mesenteric arteries (myograph) in rats with heart failure; assay type: in vivo, rat; conditions: 10 mg/kg per day for 3 months
Description: as §1, §2

COc1cc2c(cc1OC)CC(=O)N(CCCN(C)C[C@H]1Cc3cc(OC)c(OC)cc31)CC2 [ivabradine, 3-{3-[{[(7S)-3,4-dimethoxybicyclo [4.2.0]octa-1,3,5-trien-7-yl]-methyl}-(methyl)-amino]-propyl}-7,8-dimethoxy-1,3,4,5-tetrahydro-2H-3-benzazepin-2-one]
reduction in cardiac frequency [1]: 10-20%
endothelial dysfunction (capacity to dilate) in the cerebral artery (dyslipidaemic mice; DL mouse, FIG. 1C, D): completely prevents entothelial dysfunction
endothelial dysfunction (capacity to dilate) in the renal artery (dyslipidaemic mice; DL mouse, FIG. 1C, D): completely prevents entothelial dysfunction
compliance of the isolated cerebral arteries (dyslipidaemic mice; treated mice): improved
nitrogen monoxide pathway [2]: preservation of the nitrogen monoxide pathway
oxidative stress [2]: decrease in oxidative stress
endothelial dysfunction (capacity to dilate) in the coronary artery (rats with heart failure; HF rat, FIG. 1A): completely prevents entothelial dysfunction
capacity of the mesenteric artery to dilate (rats with heart failure; treated HF rat compared with untreated HF rat, FIG. 1B): appreciably improved
